Reference: US9439942B2, “Peptides and use thereof in the treatment of large cell lung cancer” (Biokine Therapeutics Ltd., priority 2012, dated 2016)
“Also recorded” adds a separate entry of the source. Read-outs that look alike come from different tables or passages of the source. Non-standard residues stand in square brackets, D forms with d. *: point of attachment. Benzoyl(4-F) = O=C(c1ccc(F)cc1)*; Cit = NC(=O)NCCC[C@H](N)C(=O)O

How the values were obtained:
[1] = system: NSCLC cell lines (H358, A549, H460, H1299 and L4); assay: Colony assay (agar), NSCLC cell lines; type: cell-based, human
Description: (§1) The H460 (large cell carcinoma), A549 (Adenocarcinoma), H358 (Bronchoalveolar carcinoma), H1299 (large cell carcinoma)—cell lines were all purchased from ATCC and were maintained in RPMI (Gibco Laboratories, Grand Island, N.Y.) containing 10% fetal calf serum (FCS), 1 mM L-glutamine, 100 U/ml penicillin, and 0.01 mg/ml streptomycin (Biological Industries, Kibbutz Beth Haemek, Israel). L-4 (a primary NSCLC cell line) was generated from large cell carcinoma as previously described (Wald et al, J Thorac Cardiovasc Surg. 2011 June; 141(6): 1503-12).
(§2) Agar base layer was prepared as follows: 45 ml of RPMI+12% FCS was mixed with 15 ml of RPMI X2+12% FCS and with 15 ml of 2.5% agar in double distilled water. Tumor cells were suspended in RPMI+10% FCS. Cell suspension was mixed in a ratio of 1:3 with the agar base solution. This mixture was then plated on top of a preformed solid agar base. […] Fourteen days later, the number of colonies was counted in ten different fields.
(§3) Data was expressed as mean ±standard error (SE) and as absolute values. Continuous data with normal distribution were analyzed using T-test. Categorical data were analyzed using Mann-Whitney U test. A p value of 0.05 was considered significant. * P<0.05, ** P<0.01. Statistical analyses were performed using (SPSS software, (IBM).

[2] = system: H460 cells (large cell carcinoma); assay: Colony assay (agar), H460; type: cell-based, human
Description: as §1, §2, §3

[3] = system: A549 cells (Adenocarcinoma); assay: Colony assay (agar), A549; type: cell-based, human
Description: as §1, §2, §3

[4] = system: H1299 cells (large cell carcinoma); assay: Colony assay (agar), H1299; type: cell-based, human; conditions: 100 μg\ml BKT140 with CXCL12
Description: as §1, §2, §3

[5] = system: H358 cells (Bronchoalveolar carcinoma); assay: Colony assay (agar), H358; type: cell-based, human; conditions: 100 μg\ml BKT140 with CXCL12
Description: as §1, §2, §3

[6] = system: NSCLC cell lines (H358, A549, H460, H1299 and L4); assay: Proliferation and survival assays, NSCLC cell lines; type: cell-based, human; conditions: 20 or 100 μg/ml BKT140, dose dependant
Description: (§4) Color extraction was done using 0.1 N HCl. […] 6 wells were determined for each time point.

[7] = system: H460 cells (large cell carcinoma); assay: Proliferation / survival assay and Giemsa stain, H460; type: cell-based, human; conditions: for H460 tumor cell proliferation, agent alone: 0.1 μg/ml, did not completely inhibit proliferation
Description: as §4

H460 derived tumors = assay: H460 derived xenograft growth in Nude mice; type: in vivo; conditions: BKT140 400 μg/mice S.C. once daily 6/7 days a week
Description: (§5) 1*10^6 H460 cells mixed in 100 μl RPMI 1640 and 100 μl matrigel (BD Bioscience) were injected subcutaneously (S.C.) into the right flank of Nude mice. Tumor growth was followed for 19 days. 1*10^6 A549 cells mixed in 100 μl RPMI 1640 and 100 μl matrigel (BD Bioscience) were injected S.C. into the right flank of Nude mice. Tumor growth was followed for 35 days. Systemic BKT140 administration was performed as follows: BKT140 (400 μg/mice dissolved in PBS) was administered once daily 6/7 days a week, by S.C. injection into the left flank at a point distant at least 1.5 cm from the right sided tumor. Tumors size was calculated by measurement of tumor length and width using the following formula: 4/3*π*(length/2)*(width/2)^2.

A549 derived tumors = assay: A549 derived xenograft growth in Nude mice; type: in vivo; conditions: BKT140 400 μg/mice S.C. once daily 6/7 days a week
Description: as §5

human CXCR4 = target: T1, human CXCR4 (Homo sapiens, UniProt P61073); assay: Immunohistochemistry for CXCR4 in H460 derived tumors after S.C. BKT140; type: in vivo; conditions: BKT140 S.C. at a site distant from the tumor, 6 hours prior to sacrification
T1 construct: Tissue sections from H460 derived tumors were tested for CXCR4 expression; endogenous in cells; host or cells: H460 NSCLC cells grown as subcutaneous xenografts in Nude mice
T1 sequence (P61073 whole entry): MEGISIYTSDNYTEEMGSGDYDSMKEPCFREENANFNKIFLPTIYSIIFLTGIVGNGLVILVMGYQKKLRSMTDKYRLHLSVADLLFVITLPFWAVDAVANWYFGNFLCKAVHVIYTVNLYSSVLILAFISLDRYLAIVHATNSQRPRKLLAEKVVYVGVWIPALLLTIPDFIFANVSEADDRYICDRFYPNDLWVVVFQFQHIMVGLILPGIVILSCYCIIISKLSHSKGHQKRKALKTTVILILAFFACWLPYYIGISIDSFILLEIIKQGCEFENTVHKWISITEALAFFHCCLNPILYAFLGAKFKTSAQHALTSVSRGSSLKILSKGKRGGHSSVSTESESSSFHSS
Description: as §5
Tissue sections of tumor-bearing Nude mice were routinely fixed with formalin and embedded in paraffin. Antigen retrieval was performed, and sections were stained with either mAb 44708 (R&D Systems, Minneapolis, MN) or 12G5 (R&D Systems) for human CXCR4 (1:100) using a standard indirect avidin-biotin HRP method according to the manufacturer's instructions. 3-Amino-9-ethylcarbazole was used for color development and sections were counterstained with hematoxylin. As negative controls, sections were stained either with no primary Ab (PBS) or with an isotype-matched control Ab.

[8] = system: A549 cells (Adenocarcinoma); conditions: for A549 tumor cell proliferation, agent alone: 0.1 μg/ml, did not completely inhibit proliferation
Description: To measure cell proliferation, 4000 cells were seeded into 96-well cell culture plates with 200 μl RPMI 1640 medium supplemented with 10% FCS under the following conditions: 37° C., and 5% CO2. Twenty-four hours later, the medium was to changed to RPMI 1640 supplemented with 1% FCS. 20 μg\ml, 50 μg/ml or 100 μg\ml BKT140, with or without Cisplatin 0.1 μg/ml or paclitaxel 0.1 μg/ml to 1 μg/ml μg/ml were added to the medium. For radiation experiments, prior to plating of cells, the cells were irradiated at the following doses 500 to 2000 Rad. Cultured cells were fixed with 2.5% Gluteraldehyde at the indicated time points and stained with 1% Methylene Blue. Color extraction was done using 0.1 N HCl. Absorbance of the solution in each well at 570 nm was read with micro-plate reader (Anthos Htll). 6 wells were determined for each time point.

[9] = system: bone marrow derived cells; conditions: cited from earlier work
[10] = increasing BKT140 with irradiation 500 Rad, cisplatin 0.1 μg/ml or paclitaxel 0.1 μg/ml (paclitaxel data not shown)

## 4F-benzoyl-Arg-Arg-Nal-Cys-Tyr-Cit-Lys-DLys-Pro-Tyr-Arg-Cit-Cys-Arg-NH2 ({Benzoyl(4-F)}-RR[Nal]CY[Cit]K[dK]PYR[Cit]CR-NH2; cysteine pairing not given here) [BKT140]
[1]; single dose of 100 μg\ml BKT140 on day one, over entire range of CXCL12 concentrations
  colony formation: reduced colony formation
[2]; 100 μg\ml BKT140 with CXCL12
  inhibitory effect on colony formation (compared between cell lines): most evident
[3]; 100 μg\ml BKT140 with CXCL12
  inhibitory effect on colony formation (compared between cell lines): least evident
[4]
  inhibitory effect on colony formation (compared between cell lines): most evident
[5]
  inhibitory effect on colony formation (compared between cell lines): least evident
[6]
  NSCLC proliferation (cytostatic / cytotoxic effect): inhibited; also recorded: both cytostatic and cytotoxic effects
  tumor cell survival: reduced tumor cell survival
[7]; BKT140 20 μg/ml
  H460 tumor cell proliferation: completely arrest
[7]; BKT140 100 μg/ml
  H460 cytotoxic effect: tumor cell death
[7]; [10]
  H460 proliferation, combination effect: additive anti proliferative effects
H460 derived tumors; 19 days
  volume / development of H460 derived tumors: significantly reduced; also recorded: significantly delayed
H460 derived tumors; H460
  decrease of median tumor volume: ~50%
A549 derived tumors; 35 days
  volume / development of A549 derived tumors: much reduced effect
A549 derived tumors; A549
  decrease of median tumor volume: ~50%
Human CXCR4
  CXCR4 staining of tumor tissue (binding to tumor expressed CXCR4): completely blocked CXCR4 staining
[8]; BKT140 20 μg/ml
  A549 tumor cell proliferation: did not affect
[8]; BKT140 100 μg/ml
  A549 tumor cell proliferation: significantly reduced
[8]; [10]
  A549 proliferation, combination effect: additive anti proliferative effects
[9]; post BKT140 injection
  time of return of mobilization to base line: 24 h
[9]; post S.C. injection
  time of peak mobilization of bone marrow derived cells: four to eight

## N.N.[Cl][Pt][Cl] [cisplatin, reference compound]
[7]
  H460 tumor cell proliferation, agent alone: moderate anti-proliferative effect
[8]
  A549 tumor cell proliferation, agent alone: moderate anti-proliferative effect

## CC(=O)O[C@H]1C(=O)[C@@]2(C)[C@H]([C@H](OC(=O)c3ccccc3)[C@]3(O)C[C@H](OC(=O)[C@H](O)[C@@H](NC(=O)c4ccccc4)c4ccccc4)C(C)=C1C3(C)C)[C@]1(OC(C)=O)CO[C@@H]1C[C@@H]2O [paclitaxel, reference compound]
[7]
  H460 tumor cell proliferation, agent alone: moderate anti-proliferative effect
[8]
  A549 tumor cell proliferation, agent alone: moderate anti-proliferative effect

## CXCL12: The chemokine CXCL12 (stromal-derived factor-1 or SDF-1), the only natural ligand of CXCR4
[1]; CXCL12 25-250 ng/ml, colonies counted after fourteen days
  colony formation: dose dependant increase in colony formation
[2]; 250 ng/ml CXCL12
  fold increase in colony number: 2.5 fold
[3]; similar CXCL12 concentrations (250 ng/ml)
  fold increase in colony number: 1.4 fold
